Consider five molecules from patent US10800791B2, “Triazole ACC inhibitors and uses thereof” (Gilead Apollo, LLC, priority 2015, dated 2020).

Converted amounts (≈) assume the structure as drawn. Like-named read-outs stand apart in the source and are kept apart here.

Type in all cases: cell-based
Assay [1] concerns Collectotrichum graminicola (Cg). The assay is described as follows: Growth inhibition assay of fungal pathogens, Cg. To be noted: 48 h. The method in brief:
(§1)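 Pathogen growth in 17% V8 broth is measured by OD600 at 24 and 48 hours, after blank subtraction, in the presence of compound at 50, 10 and 2 ppm or 2, 0.4 and 0.08 ppm. Inhibition in percent comes from 48-hour readings against the DMSO control.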

In assay [2] the test system is Fusarium moniliforme (Fm). The assay can be described thus: Growth inhibition assay of fungal pathogens, Fm. Conditions: for IC90: Fusarium verticillioides, 48 h, read-out: Concentration at 90% Inhibition Fm. The method in brief:
as §1

Another assay concerns Septoria tritici (St). The assay can be described thus: Growth inhibition assay of fungal pathogens, St. Conditions: Zymoseptoria tritici, 48 h. The method in brief:
as §1

The mark [3] stands for this setting: Collectotrichum graminicola, growth inhibition at 48 hours vs 2% DMSO control, read-out: Concentration at 90% Inhibition Cg.
The mark [4] stands for this setting: Collectotrichum graminicola, growth inhibition vs 2% DMSO control at 48 hours, read-out: Concentration at 90% Inhibition Cg.
The mark [5] stands for this setting: Fusarium moniliforme, growth inhibition at 48 hours vs 2% DMSO control.
The mark [6] stands for this setting: Fusarium moniliforme, growth inhibition vs 2% DMSO control at 48 hours.
[7] abbreviates: Septoria tritici, growth inhibition at 48 hours vs 2% DMSO control, read-out: Concentration at 90% Inhibition St.
[8] abbreviates: Septoria tritici, growth inhibition vs 2% DMSO control at 48 hours, read-out: Concentration at 90% Inhibition St.
Where [9] appears, read: read-out: Concentration at 90% Inhibition Cg, Collectotrichum graminicola, growth inhibition at 48 hours vs 2% DMSO control.
Setting [10] is: read-out: Concentration at 90% Inhibition Cg, Collectotrichum graminicola, growth inhibition vs 2% DMSO control at 48 hours.
Where [11] appears, read: read-out: Concentration at 90% Inhibition St, Septoria tritici, growth inhibition at 48 hours vs 2% DMSO control.
The mark [12] stands for this setting: read-out: Concentration at 90% Inhibition St, Septoria tritici, growth inhibition vs 2% DMSO control at 48 hours.

Consider `COCCCO[C@@H](Cn1c(=O)n([C@H](C)C(=O)NC(C)C)c(=O)c2c(C)c(-n3nccn3)sc21)c1cc(F)ccc1OC` [Compound I-87, (R)-2-(1-((R)-2-(5-fluoro-2-methoxyphenyl)-2-(3-methoxy-propoxy)ethyl)-5-methyl-2,4-dioxo-6-(2H-1,2,3-triazol-2-yl)-1,4-dihydrothieno[2,3-d]pyrimidin-3(2H)-yl)-N-isopropylpropanamide], for which the IC90 in assay [1] (setting [3]) was 0.08 µg/mL (≈ 0.133 µM); in assay [1] (setting [4]) it was 0.08 µg/mL (≈ 0.133 µM); in assay [2] (setting [5]) it was 0.08 µg/mL (≈ 0.133 µM); in assay [2] (setting [6]), 0.08 µg/mL (≈ 0.133 µM); in the assay with Septoria tritici (St) (setting [7]) it was 10 µg/mL (≈ 16.6 µM); with Septoria tritici (St) (setting [8]), above 50 µg/mL.
`COc1ccc(F)cc1[C@H](Cn1c(=O)n([C@@H](C)C(=O)NC(C)C)c(=O)c2c(C)c(-n3nccn3)sc21)OCCO` [Compound I-88, (S)-2-(1-((R)-2-(5-fluoro-2-methoxyphenyl)-2-(2-hydroxyethoxy)ethyl)-5-methyl-2,4-dioxo-6-(2H-1,2,3-triazol-2-yl)-1,4-dihydro-thieno[2,3-d]pyrimidin-3(2H)-yl)-N-isopropylpropanamide]: the IC90 in assay [1] (setting [9]) came out at 0.08 µg/mL (≈ 0.139 µM); in assay [1] (setting [10]) it was 0.08 µg/mL (≈ 0.139 µM); in assay [2], 0.08 µg/mL (≈ 0.139 µM); in the assay on Septoria tritici (St) (setting [11]), 2 µg/mL (≈ 3.48 µM); in the assay on Septoria tritici (St) (setting [12]), 10 µg/mL (≈ 17.4 µM). Further, the “Concentration at 90% Inhibition Fm” value in assay [2] (setting [5]) is “AA (compound concentration of 0.08 ppm at 90% inhibition of fungal pathogens)”.
With `COc1ccc(F)cc1[C@H](Cn1c(=O)n([C@H](C)C(=O)NC(C)C)c(=O)c2c(C)c(-n3nccn3)sc21)OCCO` [Compound I-89, (R)-2-(1-((R)-2-(5-fluoro-2-methoxyphenyl)-2-(2-hydroxy-ethoxy)ethyl)-5-methyl-2,4-dioxo-6-(2H-1,2,3-triazol-2-yl)-1,4-dihydrothieno[2,3-d]pyrimidin-3(2H)-yl)-N-isopropylpropanamide], the IC90 is above 50 µg/mL in assay [1] (setting [9]); above 50 µg/mL in assay [1] (setting [10]); 0.08 µg/mL (≈ 0.139 µM) in assay [2]; above 50 µg/mL with Septoria tritici (St) (setting [11]); above 50 µg/mL in the assay with Septoria tritici (St) (setting [12]). Moreover, the “Concentration at 90% Inhibition Fm” value in assay [2] (setting [5]) was “AA (compound concentration of 0.08 ppm at 90% inhibition of fungal pathogens)”.
With `COc1ccc(F)cc1[C@H](Cn1c(=O)n(C(C)(C)C(=O)NC(C)C)c(=O)c2c(C)c(-n3nccn3)sc21)OCCC(N)=O` [Compound I-90, (R)-2-(1-(2-(3-amino-3-oxopropoxy)-2-(5-fluoro-2-metho-xyphenyl)ethyl)-5-methyl-2,4-dioxo-6-(2H-1,2,3-triazol-2-yl)-1,4-dihydro-thieno[2,3-d]pyrimidin-3(2H)-yl)-N-isopropyl-2-methylpropanamide], the IC90 is 10 µg/mL (≈ 16.2 µM) in assay [1] (setting [3]); above 50 µg/mL in assay [1] (setting [4]); 0.4 µg/mL (≈ 0.65 µM) in assay [2] (setting [5]); 0.4 µg/mL (≈ 0.65 µM) in assay [2] (setting [6]); above 50 µg/mL in the assay on Septoria tritici (St) (setting [7]); above 50 µg/mL in the assay with Septoria tritici (St) (setting [8]).
As for `COc1ccc(F)cc1[C@H](Cn1c(=O)n(C(C)(C)C(=O)NC(C)C)c(=O)c2c(C)c(-n3nccn3)sc21)OCCC#N` [Compound I-91, (R)-2-(1-(2-(2-cyanoethoxy)-2-(5-fluoro-2-methoxy-phenyl)ethyl)-5-methyl-2,4-dioxo-6-(2H-1,2,3-triazol-2-yl)-1,4-dihydro-thieno[2,3-d]pyrimidin-3(2H)-yl)-N-isopropyl-2-methylpropanamide], the IC90 is 0.08 µg/mL (≈ 0.134 µM) in assay [1] (setting [3]); 0.08 µg/mL (≈ 0.134 µM) in assay [1] (setting [4]); 0.08 µg/mL (≈ 0.134 µM) in assay [2] (setting [5]); 0.08 µg/mL (≈ 0.134 µM) in assay [2] (setting [6]); above 50 µg/mL in the assay with Septoria tritici (St) (setting [7]); above 50 µg/mL in the assay on Septoria tritici (St) (setting [8]).
